Key:
mTOR = mTOR (Homo sapiens (Human), UniProt P42345)
PI3-Kα = PI3-Kα (Mus musculus (Mouse), UniProt P42337); test: PI3-Kα biochemical assay (in vitro kinase assay, fluorescence polarization); settings: Ki calculated from IC50, [ATP]=30 uM, Km=25 uM;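 further: Insect-cell-expressed mouse p110/p85 complex converting PI(4,5)P2, product PI(3,4,5)P3 detected by displacing TAMRA-tagged PI(3,4,5)P3 from Grip1 PH domain, lower polarization means more product, room temperature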
[1] = test system: PI3-K (phosphorylation of AKT at serine 473) in BT20 cells; test: PI3-Kα cellular assay (phospho-AKT Ser473 ELISA in BT20 cells); settings: Homo sapiens, BT-20, 1 h, read-out: S473 pAKT 10% FBS IC50 (μM);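 further: lysates read by ELISA with TMB colour at 450 nm, cells given 0.5% DMSO vehicle serve as positive control and cell-free wells as negative control, duplicate wells per concentration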

Sequence of PI3-Kα (P42337 whole entry, the tested form may be a part): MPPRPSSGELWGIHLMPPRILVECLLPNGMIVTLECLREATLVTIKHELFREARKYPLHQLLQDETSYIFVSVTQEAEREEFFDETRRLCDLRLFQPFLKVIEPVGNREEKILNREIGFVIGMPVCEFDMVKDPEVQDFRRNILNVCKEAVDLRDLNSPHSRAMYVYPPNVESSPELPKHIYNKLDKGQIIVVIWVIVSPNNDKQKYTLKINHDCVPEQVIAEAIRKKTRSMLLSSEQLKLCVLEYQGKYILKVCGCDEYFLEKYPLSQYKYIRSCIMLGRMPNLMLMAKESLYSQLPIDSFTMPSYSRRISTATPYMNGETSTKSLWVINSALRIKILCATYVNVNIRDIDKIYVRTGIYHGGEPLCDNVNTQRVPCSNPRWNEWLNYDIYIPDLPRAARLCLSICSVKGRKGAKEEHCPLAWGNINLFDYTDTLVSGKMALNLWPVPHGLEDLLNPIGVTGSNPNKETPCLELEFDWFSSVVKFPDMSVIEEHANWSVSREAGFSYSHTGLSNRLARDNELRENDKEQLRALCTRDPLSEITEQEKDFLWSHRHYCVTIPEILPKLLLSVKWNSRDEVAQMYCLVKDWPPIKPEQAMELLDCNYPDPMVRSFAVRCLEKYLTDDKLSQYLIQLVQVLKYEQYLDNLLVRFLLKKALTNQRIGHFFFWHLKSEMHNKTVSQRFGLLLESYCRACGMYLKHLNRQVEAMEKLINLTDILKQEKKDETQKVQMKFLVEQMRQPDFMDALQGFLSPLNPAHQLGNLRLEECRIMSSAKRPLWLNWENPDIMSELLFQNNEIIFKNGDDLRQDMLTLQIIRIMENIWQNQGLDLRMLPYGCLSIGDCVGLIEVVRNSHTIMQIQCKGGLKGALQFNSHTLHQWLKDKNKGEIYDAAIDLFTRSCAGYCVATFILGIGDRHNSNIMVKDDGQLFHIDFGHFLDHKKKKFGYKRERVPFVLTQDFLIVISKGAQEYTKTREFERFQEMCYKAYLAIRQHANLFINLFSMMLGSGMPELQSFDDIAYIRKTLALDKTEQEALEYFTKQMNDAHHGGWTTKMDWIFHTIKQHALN
Sequence of PI3-Kα (P26450 whole entry partner, the tested form may be a part): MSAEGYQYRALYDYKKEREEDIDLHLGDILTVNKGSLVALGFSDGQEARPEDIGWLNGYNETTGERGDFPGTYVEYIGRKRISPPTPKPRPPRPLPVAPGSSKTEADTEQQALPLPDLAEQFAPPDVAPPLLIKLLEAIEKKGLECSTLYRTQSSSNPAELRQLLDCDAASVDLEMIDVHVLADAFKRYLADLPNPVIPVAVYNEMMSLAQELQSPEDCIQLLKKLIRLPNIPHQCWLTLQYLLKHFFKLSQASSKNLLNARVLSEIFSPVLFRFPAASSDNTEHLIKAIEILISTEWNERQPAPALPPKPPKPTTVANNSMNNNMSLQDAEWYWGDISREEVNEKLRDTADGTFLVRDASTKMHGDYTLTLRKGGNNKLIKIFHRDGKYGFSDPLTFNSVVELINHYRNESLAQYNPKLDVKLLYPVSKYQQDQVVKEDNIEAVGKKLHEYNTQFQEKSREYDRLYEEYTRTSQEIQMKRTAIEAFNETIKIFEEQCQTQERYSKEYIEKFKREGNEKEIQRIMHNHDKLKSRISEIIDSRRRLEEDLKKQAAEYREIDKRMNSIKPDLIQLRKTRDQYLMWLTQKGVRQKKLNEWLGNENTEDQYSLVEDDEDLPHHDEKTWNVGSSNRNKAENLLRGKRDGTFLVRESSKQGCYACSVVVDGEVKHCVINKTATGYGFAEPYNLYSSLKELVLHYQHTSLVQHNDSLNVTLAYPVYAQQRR
Sequence of mTOR (P42345 2156-2469): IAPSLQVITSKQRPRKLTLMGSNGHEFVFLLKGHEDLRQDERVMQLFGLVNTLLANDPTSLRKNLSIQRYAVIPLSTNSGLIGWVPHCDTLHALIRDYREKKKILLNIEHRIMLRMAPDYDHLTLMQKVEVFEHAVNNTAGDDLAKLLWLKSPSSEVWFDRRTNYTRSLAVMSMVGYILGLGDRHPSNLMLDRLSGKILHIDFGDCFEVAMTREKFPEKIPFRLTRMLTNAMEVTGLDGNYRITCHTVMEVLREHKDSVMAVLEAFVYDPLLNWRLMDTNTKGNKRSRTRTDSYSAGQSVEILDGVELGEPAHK

| SMILES | Ki (mTOR) [nM] | PI3Ka Ki (PI3-Kα) [nM] | IC50 [1] [µM] |
| --- | --- | --- | --- |
| C[C@@H](O)C(=O)N1CCC(n2c(=O)n(C)c3cnc4ccc(-c5ccc(N(C)C)nc5)nc4c32)CC1 [Compound 214, 8-[6-(dimethylamino)pyridin-3-yl]-1-{1-[(2R)-2-hydroxypropanoyl]piperidin-4-yl}-3-methyl-1,3-dihydro-2H-imidazo[4,5-c][1,5]naphthyridin-2-one] | 1.74 | 0.397 | 0.00553 |
| Cn1cc(-c2ccc3ncc4c(c3n2)n(C2CCN(C(=O)C(C)(C)O)CC2)c(=O)n4C)cn1 [Compound 215, 1-[1-(2-hydroxy-2-methylpropanoyl)piperidin-4-yl]-3-methyl-8-(1-methyl-1H-pyrazol-4-yl)-1,3-dihydro-2H-imidazo[4,5-c][1,5]naphthyridin-2-one] | 22 | 4.67 | 0.0304 |
| CN(C)c1ccc(-c2ccc3ncc4c(c3n2)n(C2CCN(C(=O)CO)CC2)c(=O)n4C)cn1 [Compound 216, 8-[6-(dimethylamino)pyridin-3-yl]-1-(1-glycoloylpiperidin-4-yl)-3-methyl-1,3-dihydro-2H-imidazo[4,5-c][1,5]naphthyridin-2-one] | 2.29 | 0.505 | 0.00623 |
| Cn1c(=O)n(C2CCNCC2)c2c3nc(-c4cnn(CCO)c4)ccc3ncc21 [Compound 226, 8-[1-(2-hydroxyethyl)-1H-pyrazol-4-yl]-3-methyl-1-piperidin-4-yl-1,3-dihydro-2H-imidazo[4,5-c][1,5]naphthyridin-2-one] | 105 | 52.1 | 3.21 |
| Cn1c(=O)n(C2CCNCC2)c2c3nc(-c4cnc(N)nc4)ccc3ncc21 [Compound 227, 8-(2-aminopyrimidin-5-yl)-3-methyl-1-piperidin-4-yl-1,3-dihydro-2H-imidazo[4,5-c][1,5]naphthyridin-2-one] | 3.61 | 1.61 | 0.137 |
| Cn1c(=O)n([C@H]2CC[C@H](O)CC2)c2c3nc(-c4cnc(N)nc4)ccc3ncc21 [Compound 229, 8-(2-aminopyrimidin-5-yl)-1-(trans-4-hydroxycyclohexyl)-3-methyl-1,3-dihydro-2H-imidazo[4,5-c][1,5]naphthyridin-2-one] | 0.33 | 0.273 | 0.00336 |
| Cc1ccc(-c2ccc3ncc4c(c3n2)n([C@H](C)CO)c(=O)n4C)cn1 [Compound 231, 1-[(1R)-2-hydroxy-1-methylethyl]-3-methyl-8-(6-methylpyridin-3-yl)-1,3-dihydro-2H-imidazo[4,5-c][1,5]naphthyridin-2-one] | 56.2 | 13.4 | 0.269 |
| COc1ccc(-c2ccc3ncc4c(c3n2)n([C@H](C)CO)c(=O)n4C)cn1 [Compound 233, 1-[(1R)-2-hydroxy-1-methylethyl]-8-(6-methoxypyridin-3-yl)-3-methyl-1,3-dihydro-2H-imidazo[4,5-c][1,5]naphthyridin-2-one] | 23.8 | 8.94 | 0.237 |
| C[C@H](CO)n1c(=O)n(C)c2cnc3ccc(-c4cnc(N)nc4)nc3c21 [Compound 235, 8-(2-aminopyrimidin-5-yl)-1-[(1R)-2-hydroxy-1-methylethyl]-3-methyl-1,3-dihydro-2H-imidazo[4,5-c][1,5]naphthyridin-2-one] | 6.99 | 15.5 | 0.331 |
| C[C@H](CO)n1c(=O)n(C)c2cnc3ccc(-c4cccc5[nH]ccc45)nc3c21 [Compound 237, 1-[(1R)-2-hydroxy-1-methylethyl]-8-(1H-indo1-4-yl)-3-methyl-1,3-dihydro-2H-imidazo[4,5-c][1,5]naphthyridin-2-one] | 6.66 | 29.6 | 0.0553 |
| C[C@H](CO)n1c(=O)n(C)c2cnc3ccc(-c4cnc5[nH]ncc5c4)nc3c21 [Compound 238, 1-[(1R)-2-hydroxy-1-methylethyl]-3-methyl-8-(1H-pyrazolo[3,4-b]pyridin-5-yl)-1,3-dihydro-2H-imidazo[4,5-c][1,5]naphthyridin-2-one] | 4.44 | 0.438 | 0.0838 |
| C[C@@H](CO)n1c(=O)n(C)c2cnc3ccc(-c4cnn(C)c4)nc3c21 [Compound 239, 1-[(1S)-2-hydroxy-1-methylethyl]-3-methyl-8-(1-methyl-1H-pyrazol-4-yl)-1,3-dihydro-2H-imidazo[4,5-c][1,5]naphthyridin-2-one] | 311 | 102 | 5.04 |
| COc1ccc(-c2ccc3ncc4c(c3n2)n([C@@H](C)CO)c(=O)n4C)cn1 [Compound 241, 1-[(1S)-2-hydroxy-1-methylethyl]-8-(6-methoxypyridin-3-yl)-3-methyl-1,3-dihydro-2H-imidazo[4,5-c][1,5]naphthyridin-2-one] | 28.7 | 4.08 | 0.266 |
| CC(=O)N1CCC(n2c(=O)n(C)c3cnc4ccc(-c5ccc(N)nc5)nc4c32)CC1 [Compound 242, 1-(1-acetylpiperidin-4-yl)-8-(6-aminopyridin-3-yl)-3-methyl-1,3-dihydro-2H-imidazo[4,5-c][1,5]naphthyridin-2-one] | 0.299 | 0.252 | 0.00917 |
| CC(=O)N1CCC(n2c(=O)n(C)c3cnc4ccc(-c5ccc(S(C)(=O)=O)cc5)nc4c32)CC1 [Compound 246, 1-(1-acetylpiperidin-4-yl)-3-methyl-8-[4-(methylsulfonyl)phenyl]-1,3-dihydro-2H-imidazo[4,5-c][1,5]naphthyridin-2-one] | 35.3 | 24.2 | 2.58 |
| CC(=O)N1CCC(n2c(=O)n(C)c3cnc4ccc(-c5ccnc6[nH]ncc56)nc4c32)CC1 [Compound 251, 1-(1-acetylpiperidin-4-yl)-3-methyl-8-(1H-pyrazolo[3,4-b]pyridin-4-yl)-1,3-dihydro-2H-imidazo[4,5-c][1,5]naphthyridin-2-one] | 4.63 | 0.811 | 0.14 |
| C[C@H](O)C(=O)N1CCC(n2c(=O)n(C)c3cnc4ccc(-c5ccnc6[nH]ncc56)nc4c32)CC1 [Compound 253, 1-{1-[(2S)-2-hydroxypropanoyl]piperidin-4-yl}-3-methyl-8-(1H-pyrazolo[3,4-b]pyridin-4-yl)-1,3-dihydro-2H-imidazo[4,5-c][1,5]naphthyridin-2-one] | 1.69 | 1.04 | 0.218 |
| Cn1c(=O)n(C2CCN(C(=O)CO)CC2)c2c3nc(-c4cccc5[nH]ncc45)ccc3ncc21 [Compound 256, 1-(1-glycoloylpiperidin-4-yl)-8-(1H-indazol-4-yl)-3-methyl-1,3-dihydro-2H-imidazo[4,5-c][1,5]naphthyridin-2-one] | 1.97 | 0.575 | 0.0604 |
| C[C@@H](O)C(=O)N1CCC(n2c(=O)n(C)c3cnc4ccc(-c5cnc6[nH]ncc6c5)nc4c32)CC1 [Compound 258, 1-{1-[(2R)-2-hydroxypropanoyl]piperidin-4-yl}-3-methyl-8-(1H-pyrazolo[3,4-b]pyridin-5-yl)-1,3-dihydro-2H-imidazo[4,5-c][1,5]naphthyridin-2-one] | 0.241 | 0.11 | 0.0294 |
| COCC(=O)N1CCC(n2c(=O)n(C)c3cnc4ccc(-c5cnc6[nH]ncc6c5)nc4c32)CC1 [Compound 260, 1-[1-(methoxyacetyl)piperidin-4-yl]-3-methyl-8-(1H-pyrazolo[3,4-b]pyridin-5-yl)-1,3-dihydro-2H-imidazo[4,5-c][1,5]naphthyridin-2-one] | 0.323 | 0.167 | 0.0153 |
| Cn1c(=O)n(C2CCN(C(=O)C(C)(C)O)CC2)c2c3nc(-c4cnc5[nH]ncc5c4)ccc3ncc21 [Compound 261, 1-[1-(2-hydroxy-2-methylpropanoyl)piperidin-4-yl]-3-methyl-8-(1H-pyrazolo[3,4-b]pyridin-5-yl)-1,3-dihydro-2H-imidazo[4,5-c][1,5]naphthyridin-2-one] | 0.658 | 0.114 | 0.00991 |
| Cn1c(=O)n(C2CCN(C(=O)CO)CC2)c2c3nc(-c4cnc5[nH]ncc5c4)ccc3ncc21 [Compound 262, 1-(1-glycoloylpiperidin-4-yl)-3-methyl-8-(1H-pyrazolo[3,4-b]pyridin-5-yl)-1,3-dihydro-2H-imidazo[4,5-c][1,5]naphthyridin-2-one] | 4.06 | 0.32 | 0.0594 |
| CN1CCC(n2c(=O)n(C)c3cnc4ccc(-c5cnc6[nH]ncc6c5)nc4c32)CC1 [Compound 263, 3-methyl-1-(1-methylpiperidin-4-yl)-8-(1H-pyrazolo[3,4-b]pyridin-5-yl)-1,3-dihydro-2H-imidazo[4,5-c][1,5]naphthyridin-2-one] | 5.67 | 0.282 | 0.0218 |
| CCNC(=O)Nc1ccc(-c2ccc3ncc4c(c3n2)n(C2CCN(C(=O)OC(C)(C)C)CC2)c(=O)n4C)cc1 [Compound 265, tert-butyl 4-(8-{4-[(ethylcarbamoyl)amino]phenyl}-3-methyl-2-oxo-2,3-dihydro-1H-imidazo[4,5-c][1,5]naphthyridin-1-yl)piperidine-1-carboxylate] | 14.4 | 5.02 | 0.0399 |
| COc1ccc(-c2ccc3ncc4c(c3n2)n(CCN2CCNCC2)c(=O)n4C)cn1 [Compound 266, 8-(6-methoxypyridin-3-yl)-3-methyl-1-(2-piperazin-1-ylethyl)-1,3-dihydro-2H-imidazo[4,5-c][1,5]naphthyridin-2-one] | 273 | 7.8 | 0.344 |

— US8791131B2, “Imidazo[1,5]naphthyridine compounds, their pharmaceutical use and compositions” (Pfizer Inc., priority 2008, dated 2014)
